Test results as given in PMC10052868 (European journal of medicinal chemistry, 2022).

Tests used:
PfARK1 = assay: KinaseSeeker assay on PfARK1; assay type: binding, P. falciparum; conditions: duplicate
PfPK6 = PfPK6 (Plasmodium falciparum, UniProt Q8IDW1); assay: KinaseSeeker split-luciferase assay on PfPK6; assay type: binding, P. falciparum; conditions: for remaining activity at 1 µM: read-out: PfPK6 activity remaining at 1 μM (%)
PfNEK1 = assay: KinaseSeeker assay on PfNEK1; assay type: binding, P. falciparum; conditions: duplicate
PfARK3 = assay: KinaseSeeker assay on PfARK3; assay type: binding, P. falciparum; conditions: duplicate
[1] = system: panel of 468 kinases (403 non-mutant kinases); assay type: binding, human; conditions: for number of non-mutant kinases inhibited with ≤1% control: 1 μM, out of 403 non-mutant kinases
P. berghei ANKA = assay: P. berghei liver stage parasite load assay in HepG2 cells; assay type: cell-based; conditions: for P. berghei liver stage activity in words: inactive = EC50 not reported because <5-fold difference between observed EC50 and HepG2 CellTiter-Fluor cytotoxicity; for fold difference between P. berghei EC50 and CellTiter-Fluor CC50: HepG2 host cells
PfNEK3 = target: T1, PfNEK3 (Plasmodium falciparum, UniProt Q8I629); assay: KinaseSeeker assay on PfNEK3; assay type: binding, P. falciparum
T1 sequence (Q8I629 1-347): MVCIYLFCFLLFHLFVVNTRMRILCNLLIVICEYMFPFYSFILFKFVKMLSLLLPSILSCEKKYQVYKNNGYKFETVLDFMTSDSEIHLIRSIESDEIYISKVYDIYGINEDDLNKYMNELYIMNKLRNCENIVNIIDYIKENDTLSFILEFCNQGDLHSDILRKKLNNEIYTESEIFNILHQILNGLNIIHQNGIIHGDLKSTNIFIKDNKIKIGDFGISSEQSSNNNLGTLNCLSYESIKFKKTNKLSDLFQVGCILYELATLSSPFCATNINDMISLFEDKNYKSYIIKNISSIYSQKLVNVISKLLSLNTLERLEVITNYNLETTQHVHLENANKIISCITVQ

PfPKB = PfPKB (Plasmodium falciparum, UniProt Q8I4W3); assay: KinaseSeeker assay on PfPKB; assay type: binding, P. falciparum
PfGSK3 = PfGSK3 (Plasmodium falciparum, UniProt O77344); assay: KinaseSeeker assay on PfGSK3; assay type: binding, P. falciparum
PfCDPK5 = PfCDPK5 (Plasmodium falciparum, UniProt A0A5K1K8H0); assay: KinaseSeeker assay on PfCDPK5; assay type: binding, P. falciparum
PfPK5 = PfPK5 (Plasmodium falciparum, UniProt P61075); assay: KinaseSeeker assay on PfPK5; assay type: binding, P. falciparum; conditions: read-out: PfPK5 % Activity remaining at 1 μM
P. falciparum 3D7 = assay: P. falciparum asexual blood stage viability assay; assay type: cell-based
PfPK9 = assay: KinaseSeeker assay on PfPK9; assay type: binding, P. falciparum; conditions: duplicate
[2] = GE = −ΔΔG / Δ(no. of heavy atoms), PfPK6 inhibition

Chain of PfPK5 (P61075 whole entry): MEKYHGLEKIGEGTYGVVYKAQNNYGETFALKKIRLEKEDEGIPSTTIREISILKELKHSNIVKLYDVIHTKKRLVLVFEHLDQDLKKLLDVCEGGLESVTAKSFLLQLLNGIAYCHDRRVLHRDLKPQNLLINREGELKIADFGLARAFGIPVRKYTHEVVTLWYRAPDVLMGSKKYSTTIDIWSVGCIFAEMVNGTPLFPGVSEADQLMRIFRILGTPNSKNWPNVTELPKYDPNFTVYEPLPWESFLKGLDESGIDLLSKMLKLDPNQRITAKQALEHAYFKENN
Chain of PfCDPK5 (A0A5K1K8H0 whole entry): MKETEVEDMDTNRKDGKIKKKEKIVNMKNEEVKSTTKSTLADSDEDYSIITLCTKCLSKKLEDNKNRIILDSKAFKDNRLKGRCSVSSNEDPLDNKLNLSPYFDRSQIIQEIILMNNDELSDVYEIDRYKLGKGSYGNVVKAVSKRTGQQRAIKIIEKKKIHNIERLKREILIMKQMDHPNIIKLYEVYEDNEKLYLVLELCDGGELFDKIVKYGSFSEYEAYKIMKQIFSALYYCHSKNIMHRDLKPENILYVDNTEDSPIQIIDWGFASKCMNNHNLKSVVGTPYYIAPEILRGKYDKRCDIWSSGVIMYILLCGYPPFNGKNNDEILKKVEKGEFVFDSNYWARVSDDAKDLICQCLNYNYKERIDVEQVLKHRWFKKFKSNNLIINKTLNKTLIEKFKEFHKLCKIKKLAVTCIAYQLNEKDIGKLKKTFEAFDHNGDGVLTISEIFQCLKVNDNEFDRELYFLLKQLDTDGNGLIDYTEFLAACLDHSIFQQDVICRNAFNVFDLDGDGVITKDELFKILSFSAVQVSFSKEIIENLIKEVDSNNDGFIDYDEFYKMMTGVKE

Row | Compound | remaining activity at 1 µM (PfPK6) | PfNEK1 % Activity remaining at 1 μM (PfNEK1) | PfARK3 % Activity remaining at 1 μM (PfARK3) | number of non-mutant kinases inhibited with ≤1% control [1] | P. berghei liver stage activity in words (P. berghei ANKA) | fold difference between P. berghei EC50 and CellTiter-Fluor CC50 (P. berghei ANKA) | also measured
1 | COc1cc2nccc(Oc3ccc(NC(=O)Nc4ccc(CC5CCNCC5)c(C(F)(F)F)c4)c(F)c3)c2cc1OC [Compound 79, 1-(4-((6,7-dimethoxyquinolin-4-yl)oxy)-2-fluorophenyl)-3-(4-(piperidin-4-ylmethyl)-3-(trifluoromethyl)phenyl)urea] | 1% | 100% | – | – | – | – | PfARK1 % Activity remaining at 1 μM (PfARK1): 100%; IC50 (PfPK6): < 5 nM
2 | COc1cc2nccc(Oc3ccc(NC(=O)Nc4ccc(CC5CCNCC5)cc4)c(F)c3)c2cc1OC [Compound 67, 1-(4-((6,7-dimethoxyquinolin-4-yl)oxy)-2-fluorophenyl)-3-(4-(piperidin-4-ylmethyl)phenyl)urea] | 2% | 100% | 100% | 22 | inactive^g | – | –
3 | COc1cc2nccc(Oc3ccc(NC(=O)Nc4ccc(CN5CCN(C)CC5)c(C(F)(F)F)c4)c(F)c3)c2cc1OC [Compound 45, 1-(4-((6,7-dimethoxyquinolin-4-yl)oxy)-2-fluorophenyl)-3-(4-((4-methylpiperazin-1-yl)methyl)-3-(trifluoromethyl)phenyl)urea diformate] | – | – | – | 134 | – | – | IC50 (PfNEK3): 40 to 144 nM; IC50 (PfPKB): 40 to 144 nM; IC50 (PfGSK3): 40 to 144 nM; IC50 (PfCDPK5): 40 to 144 nM
4 | COc1cc2nccc(Oc3ccc(NC(=O)Nc4ccc(C=C5CCNCC5)cc4)c(F)c3)c2cc1OC [Compound 68, 1-(4-((6,7-dimethoxyquinolin-4-yl)oxy)-2-fluorophenyl)-3-(4-(piperidin-4-ylidenemethyl)phenyl)urea] | 1% | 100% | 100% | – | inactive^g | 1.9 fold | remaining activity at 1 µM (PfPK5): 100%; fold improvement in P. falciparum blood stage inhibitory activity over 41 (P. falciparum 3D7; compared to 41): approximately 4 fold; PfPK9 % Activity remaining at 1 μM (PfPK9): 100%
5 | COc1cc2nccc(Oc3ccc(NC(=O)Nc4ccc(F)cc4F)c(F)c3)c2cc1OC [Ki8751, reference compound] | – | – | – | 16 | – | – | selectivity score S1 (1 μM) ([1]; KINOMEscan, 403 non-mutant kinases): 0.040; group efficiency (GE) of the 7-methoxy group (PfPK6; [2]): 0.81 ± 0.04; group efficiency (GE) of the entire urea group (PfPK6; [2]): 0.39 ± 0.02; group efficiency (GE) of the tail phenyl ring (PfPK6; [2]): > 0.41 ± 0.005
6 | COc1cc2nccc(Oc3ccc(NC(=O)Nc4ccc(OC5CCN(C)CC5)c(C(F)(F)F)c4)c(F)c3)c2cc1OC [Compound 75, 1-(4-((6,7-dimethoxyquinolin-4-yl)oxy)-2-fluorophenyl)-3-(4-((1-methylpiperidin-4-yl)oxy)-3-(trifluoromethyl)phenyl)urea] | 0% | 100% | – | – | inactive^g | 1.9 fold | fold improvement in P. falciparum blood stage potency on adding CF3 or OCF3 (P. falciparum 3D7; compared to parent compound without meta group (64, 66, 67 or 68)): 8 fold
